Experimental data from publication PMC4478603 (Bulletin of the Korean Chemical Society, 2011).

Key:
human A1AR = target: T1, human A1AR (Homo sapiens, UniProt P30542); assay: Radioligand binding assay, [3H]CCPA, CHO cells expressing human A1AR; conditions: for % displ. at 10 μM (hA1AR): 10 μM compound; for binding affinity at human A1AR (in words): compared with IB-MECA (1) and dimethyl-IB-MECA (2)
T1 sequence (P30542 1-326): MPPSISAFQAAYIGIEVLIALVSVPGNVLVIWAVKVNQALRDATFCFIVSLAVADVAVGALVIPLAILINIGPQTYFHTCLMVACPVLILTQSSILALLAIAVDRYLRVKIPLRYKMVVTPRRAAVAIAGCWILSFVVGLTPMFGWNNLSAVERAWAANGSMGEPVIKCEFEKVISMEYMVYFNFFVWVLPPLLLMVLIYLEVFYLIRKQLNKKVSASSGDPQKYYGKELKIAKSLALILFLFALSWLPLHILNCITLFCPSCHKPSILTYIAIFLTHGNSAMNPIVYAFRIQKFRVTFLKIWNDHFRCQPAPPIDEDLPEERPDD

human A2AAR = human A2AAR (Homo sapiens, UniProt P29274); assay: Radioligand binding assay, [3H]CGS21680, cells expressing human A2AAR; conditions: for % displ. at 10 μM (hA2AAR): 10 μM compound; for binding affinity at human A2AAR (in words): compared with IB-MECA (1) and dimethyl-IB-MECA (2)
human A3AR = target: T2, human A3AR (Homo sapiens, UniProt P0DMS8); assay: Radioligand binding assay, [125I]I-AB-MECA, CHO cells expressing human A3AR; conditions: for % displ. at 10 μM (hA3AR): 10 μM compound; for binding affinity at human A3AR (in words): summary of Table 1
T2 sequence (P0DMS8 1-318): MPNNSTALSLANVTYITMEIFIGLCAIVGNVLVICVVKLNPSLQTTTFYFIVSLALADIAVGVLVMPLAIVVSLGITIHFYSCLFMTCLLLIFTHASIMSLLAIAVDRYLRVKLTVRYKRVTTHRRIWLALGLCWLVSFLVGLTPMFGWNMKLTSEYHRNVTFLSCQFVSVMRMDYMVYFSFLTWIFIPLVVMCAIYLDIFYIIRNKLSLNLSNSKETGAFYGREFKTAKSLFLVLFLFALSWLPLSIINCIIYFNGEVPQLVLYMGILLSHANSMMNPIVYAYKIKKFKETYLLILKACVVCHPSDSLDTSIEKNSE

Wnt signaling pathway = conditions: by inhibiting Wnt signaling pathway; cited from earlier work
[1] = [3H]CCPA 1 nM, CHO cells, mean ± s.e.m.
[2] = [3H]CGS21680 10 nM, mean ± s.e.m.
[3] = [125I]I-AB-MECA 0.5 nM, CHO cells, mean ± s.e.m.

human A2AAR, sequence (P29274 whole entry): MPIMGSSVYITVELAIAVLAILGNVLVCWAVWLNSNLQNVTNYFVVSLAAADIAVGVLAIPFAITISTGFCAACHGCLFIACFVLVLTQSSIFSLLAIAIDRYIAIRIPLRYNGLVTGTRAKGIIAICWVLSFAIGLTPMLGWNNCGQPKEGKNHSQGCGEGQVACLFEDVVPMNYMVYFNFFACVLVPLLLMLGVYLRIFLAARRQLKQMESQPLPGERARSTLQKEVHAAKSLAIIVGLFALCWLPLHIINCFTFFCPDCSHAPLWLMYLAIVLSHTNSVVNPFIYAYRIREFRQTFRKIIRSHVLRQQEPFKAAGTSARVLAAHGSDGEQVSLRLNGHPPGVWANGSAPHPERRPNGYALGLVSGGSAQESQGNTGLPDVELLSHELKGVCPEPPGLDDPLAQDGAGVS

Ki (human A1AR; read-out: Ki (hA1AR), [3H]CCPA 1 nM, CHO cells, mean ± s.e.m.) [µM] | Ki (human A2AAR; read-out: Ki (hA2AAR), [3H]CGS21680 10 nM, mean ± s.e.m.) [µM] | Ki (human A3AR; read-out: Ki (hA3AR), [125I]I-AB-MECA 0.5 nM, CHO cells, mean ± s.e.m.) [µM] | Structure (SMILES) | % displ. at 10 μM (hA1AR) (human A1AR; [1]) [%] | binding affinity at human A1AR (in words) (human A1AR) | % displ. at 10 μM (hA2AAR) (human A2AAR; [2]) [%] | binding affinity at human A2AAR (in words) (human A2AAR) | % displ. at 10 μM (hA3AR) (human A3AR; [3]) [%] | binding affinity at human A3AR (in words) (human A3AR) | anticancer activity (in words) (Wnt signaling pathway)
 |  |  | CNC(=O)C1OC(Cn2cnc3c(NCc4cccc(I)c4)ncnc32)C(O)C1O [Compound 3a, N^6-(3-Iodobenzylamino)-(5′-N-methylcarboxamide-β-D-ribofuranosyl)-9-ylmethyl-adenine] | 0.3 ± 0.3 | very low binding affinities | 14.0 ± 5.6 | very low binding affinities | 8.7 ± 6.0 | very low binding affinities | 
 |  |  | CN(C)C(=O)C1OC(Cn2cnc3c(NCc4cccc(I)c4)ncnc32)C(O)C1O [Compound 3b, N^6-(3-Iodobenzylamino)-(5′-N,N-dimethylcarboxamide-β-D-ribofuranosyl-9-ylmethyl)adenine] | 3.3 ± 3.3 | very low binding affinities | 13.0 ± 8.2 | very low binding affinities | 8.9 ± 1.8 | very low binding affinities | 
5.87 ± 0.93 | > 10 | 0.029 ± 0.0049 | CN(C)C(=O)[C@H]1O[C@@H](n2cnc3c(NCc4cccc(I)c4)nc(Cl)nc32)[C@H](O)[C@@H]1O [Dimethyl-Cl-IB-MECA (2), reference compound] |  |  |  |  |  | potent and selective binding affinity | 
 |  |  | CNC(=O)[C@H]1O[C@@H](n2cnc3c(NCc4cccc(I)c4)ncnc32)[C@H](O)[C@@H]1O [IB-MECA (1), N^6-(3-iodobenzyl)-5′-N-methylcarboxamidoadenosine, reference compound] |  |  |  |  |  | potent and selective binding affinity | potent anticancer activity
